What was measured:
THP-1 = experiment: Inhibition of LPS-induced TNFalpha production in human THP1 cells; format: functional, cell-based
[1] = target: T1, Mitogen-activated protein kinase 14 (Homo sapiens, UniProt Q16539); experiment: Inhibition of human p38alpha
[2] = target: T1, Mitogen-activated protein kinase 14; experiment: Inhibition of human p38alpha phosphorylation
[3] = Tmax in rat at 30 mg/kg, po; format: ADME, organism-based; design: dose 30 mg/kg, route oral; conditions: in vivo
[4] = Cmax in rat at 30 mg/kg, po; format: ADME, organism-based; design: dose 30 mg/kg, route oral; conditions: in vivo
[5] = Half life in rat at 30 mg/kg, po; format: ADME, organism-based; design: dose 30 mg/kg, route oral; conditions: in vivo
[6] = AUC in rat at 30 mg/kg, po; format: ADME, organism-based; design: dose 30 mg/kg, route oral; conditions: plasma
[7] = Oral bioavailability in rat at 30 mg/kg; format: ADME, organism-based; conditions: in vivo
[8] = Clearance in rat at 10 mg/kg, iv; format: ADME, organism-based; design: dose 10 mg/kg, route intravenous; conditions: in vivo
[9] = Volume of distribution at steady state in rat at 10 mg/kg, iv; format: ADME, organism-based; design: dose 10 mg/kg, route intravenous; conditions: in vivo, read-out: Vdss

T1 sequence (Q16539 whole entry): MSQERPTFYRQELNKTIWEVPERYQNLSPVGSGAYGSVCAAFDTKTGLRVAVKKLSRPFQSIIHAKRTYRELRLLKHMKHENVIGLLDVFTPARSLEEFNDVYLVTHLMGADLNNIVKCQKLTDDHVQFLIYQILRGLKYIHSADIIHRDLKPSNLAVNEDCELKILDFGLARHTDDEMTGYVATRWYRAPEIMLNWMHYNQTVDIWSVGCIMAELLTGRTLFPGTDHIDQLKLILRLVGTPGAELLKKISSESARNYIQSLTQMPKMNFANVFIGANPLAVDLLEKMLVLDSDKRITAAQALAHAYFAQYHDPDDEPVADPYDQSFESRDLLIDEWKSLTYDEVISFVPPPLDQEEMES

`Cn1nc(C(C)(C)C)cc1NC(=O)C(=O)c1ccc(OCCN2CCOCC2)c2ccccc12` gave an IC50 (THP-1) of 440 nM.
For `Cc1cccc(-n2nc(C(C)(C)C)cc2/C(=N/O)C(=O)Nc2ccc(OCCN3CCOCC3)c3ccccc23)c1`, the IC50 (THP-1) was 49 nM, the IC50 [1] was 59 nM and the IC50 [2] was 100 nM. For the same compound, the Tmax [3] was 1.5 h, the Cmax [4] was 4000 ng/mL and the half-life [5] was 2.9 h. For the same compound, the AUC [6] was 26000 ng·h/mL, the bioavailability [7] was 54% and the clearance [8] was 10.2 mL/min/kg. For the same compound, the Vd [9] was 1.5 L/kg.
With `Cc1oc(C(C)(C)C)cc1C(=O)C(=O)Nc1ccc(OCCN2CCOCC2)c2ccccc12` the IC50 (THP-1) was 61 nM, the IC50 [1] was 22 nM and the IC50 [2] was 270 nM.
For `Cc1oc(C(C)(C)C)cc1C(=O)C(=O)Nc1ccc(-c2ccc(CN3CCOCC3)nc2)c2ccccc12`, the IC50 (THP-1) was 9 nM, the IC50 [1] was 59 nM and the IC50 [2] was 20 nM.
Compound `Cc1cccc(-n2nc(C(C)(C)C)cc2C(=O)C(=O)Nc2ccc(OCCN3CCOCC3)c3ccccc23)c1` has an IC50 (THP-1) of 280 nM.
Work on `Cc1ccc(-n2nc(C(C)(C)C)cc2C(=O)C(=O)Nc2ccc(OCCN3CCOCC3)c3ccccc23)cc1` yielded an IC50 (THP-1) of 330 nM.
`CC(C)(C)c1cc(C(=O)C(=O)Nc2ccc(OCCN3CCOCC3)c3ccccc23)n(-c2ccc(F)c(F)c2)n1` showed an IC50 (THP-1) of 180 nM.
For `Cc1ccc(-n2nc(C(C)(C)C)cc2/C(=C/O)C(=O)Nc2ccc(OCCN3CCOCC3)c3ccccc23)cc1`, the IC50 (THP-1) was 3300 nM.
`Cc1oc(C(C)(C)C)cc1C(=O)C(=O)Nc1ccc(Nc2ncccn2)c2ccccc12` gave an IC50 (THP-1) of 460 nM.
Work on `Cn1nc(C(C)(C)C)cc1NC(=O)C(=O)c1ccc(-c2ccc(CN3CCOCC3)nc2)c2ccccc12` yielded an IC50 (THP-1) of 850 nM.
For `Cn1nc(C(C)(C)C)cc1C(=O)C(=O)Nc1ccc(OCCN2CCOCC2)c2ccccc12`, the IC50 (THP-1) was 70 nM, the IC50 [1] was 14 nM and the IC50 [2] was 70 nM.
For `Cc1oc(C(C)(C)C)cc1C(=O)C(=O)Nc1ccc(Nc2ccncn2)c2ccccc12`, the IC50 (THP-1) was 59 nM.
